“Also recorded” adds a separate entry of the source. Bridge positions count the residues as written; N and C are the ends. Square brackets hold non-standard residues; d marks the D form. Ends that are not written are not given here. Peptide text beside a SMILES is read from it. R8 = C=CCCCCCC[C@@](C)(N)C(=O)O; S5 = C=CCCC[C@](C)(N)C(=O)O; Sar = CNCC(=O)O
Key:
C1q = molecular target: T1, C1q (Homo sapiens, UniProt P02745+P02746+P02747); test: C1q binding ELISA-type assay; settings: for binding to C1q: plate-bound C1q, antibody detection
T1 construct: purchased Complement Technology (Tyler, Tex.)
T1 sequence (P02745 23-245): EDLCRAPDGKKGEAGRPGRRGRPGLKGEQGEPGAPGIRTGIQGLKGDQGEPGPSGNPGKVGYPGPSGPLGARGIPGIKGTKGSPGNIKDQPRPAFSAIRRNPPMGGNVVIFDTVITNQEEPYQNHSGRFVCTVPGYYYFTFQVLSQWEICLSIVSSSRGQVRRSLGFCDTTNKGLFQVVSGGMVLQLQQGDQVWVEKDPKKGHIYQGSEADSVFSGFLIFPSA
T1 sequence (P02746 28-253): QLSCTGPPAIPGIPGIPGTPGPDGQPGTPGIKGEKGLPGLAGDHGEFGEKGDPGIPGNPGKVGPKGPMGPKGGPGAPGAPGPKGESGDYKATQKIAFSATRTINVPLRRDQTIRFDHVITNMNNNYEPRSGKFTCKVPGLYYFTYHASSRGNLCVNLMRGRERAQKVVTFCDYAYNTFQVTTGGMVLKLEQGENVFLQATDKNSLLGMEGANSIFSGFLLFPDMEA
T1 sequence (P02747 29-245): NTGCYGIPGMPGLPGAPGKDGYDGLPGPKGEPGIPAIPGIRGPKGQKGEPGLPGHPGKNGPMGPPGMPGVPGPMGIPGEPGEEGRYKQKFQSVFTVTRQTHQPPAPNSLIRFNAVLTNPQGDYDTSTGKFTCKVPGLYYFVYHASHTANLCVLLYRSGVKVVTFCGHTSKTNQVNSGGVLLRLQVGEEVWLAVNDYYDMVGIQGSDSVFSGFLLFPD
Description: The C1q binding assay was performed as previously described. Briefly, an Immunlon-2 HB ELISA plate was coated with 1 μg/ml C1q in bicarbonate buffer overnight at 4° C. The plates were washed with PBS-T (phosphate buffered saline+0.1% Tween) and then blocked with 1% gelatin/PBS for 2 hours at room temperature. After washing, the plates were incubated with the peptides starting at 2.5 mg/ml and then serially diluted in 1% gelatin/PBS for 1 hour at room temperature followed by washing. Plates were then probed with rabbit antibody raised against the lead peptide […] (SEQ ID NO: 2) that lacked PEGylation at 1:1000 in 1% gelatin/PBS for 1 hour at room temperature followed by a goat anti-rabbit HRP (Sigma Aldrich, St Louis, Mo.) at 1:1,000 in 1% gelatin/PBS for 1 hour at room temperature with a washing step in between. After addition of TMB substrate solution to the wells, the reaction was stopped using 1N H2SO4, and the plate read on a BioTek Synergy HT plate reader at 450 nm.
The astrovirus capsid protein and the PIC1 molecules derived from it inhibit classical complement pathway activation by binding to the pattern recognition molecule C1q. The inventors next tested peptide variant binding to C1q in an ELISA-type assay in which C1q is used as the capture substrate and bound peptide detected with a rabbit polyclonal antibody against the peptide portion of PA-dPEG24 ([…]-d24; SEQ ID NO: 3). Binding curves were derived for the stapled and D-amino acid peptides based on the PA-I8Sar and PA-C9Sar (FIG. 6A-6D) backbone, from which half-maximal binding concentrations were calculated (FIGS. 2A and B, respectively). […] For the D-amino acid variants, all peptides in which C1q binding was detected, had variable but increased binding to C1q compared to PA-I8Sar (FIG. 2A). For the peptides based on the PA-C9Sar backbone, with the exception of PA-0148, C1q was bound to the same degree or greater than the parent peptide (FIG. 2B).
(§1) The inventors also assessed the ability of RLS-0127* and RLS-0133* to inhibit MPO activity as determined by inhibition of oxidation of TMB in a plate-based assay. […] Additionally, the inventors assessed the ability of RLS-0127* and RLS-0133* to bind C1q in a plate-based assay in which C1q is coated on the plate and increasing amounts of the peptides are added, followed by primary antibody to the peptides and secondary antibody conjugated to HRP. The plate was then incubated with TMB to give a […] signal that is detected at a wavelength of 450 nm in a plate reader.

MPO = molecular target: T2, MPO (Homo sapiens, UniProt P05164); test: MPO activity assay (TMB oxidation); assay type: biochemical; settings: for inhibition of MPO peroxidase activity (TMB oxidation), dose response: purified human MPO, increasing amounts of peptide
T2 construct: purchased Lee BioSolutions (Maryland Heights, Mo.)
T2 sequence (P05164 49-745): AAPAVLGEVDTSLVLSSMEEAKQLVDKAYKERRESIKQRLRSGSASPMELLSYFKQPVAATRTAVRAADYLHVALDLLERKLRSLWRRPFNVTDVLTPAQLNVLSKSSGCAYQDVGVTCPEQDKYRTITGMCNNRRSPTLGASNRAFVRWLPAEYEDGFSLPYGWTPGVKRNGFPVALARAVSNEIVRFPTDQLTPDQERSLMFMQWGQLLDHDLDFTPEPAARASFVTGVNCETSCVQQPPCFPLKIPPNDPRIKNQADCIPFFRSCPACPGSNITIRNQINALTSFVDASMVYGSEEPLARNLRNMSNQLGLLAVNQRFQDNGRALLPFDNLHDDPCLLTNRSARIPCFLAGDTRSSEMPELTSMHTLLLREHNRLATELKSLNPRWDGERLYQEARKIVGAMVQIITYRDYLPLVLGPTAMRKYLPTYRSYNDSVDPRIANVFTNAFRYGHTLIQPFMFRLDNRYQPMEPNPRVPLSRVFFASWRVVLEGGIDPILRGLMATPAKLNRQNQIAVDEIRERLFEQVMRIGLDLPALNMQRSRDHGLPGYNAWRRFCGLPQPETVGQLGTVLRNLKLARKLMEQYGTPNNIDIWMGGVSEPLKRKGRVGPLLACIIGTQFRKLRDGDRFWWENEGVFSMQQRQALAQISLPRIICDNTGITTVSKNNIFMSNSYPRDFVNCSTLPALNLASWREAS
Description: The MPO activity assay was performed as previously described. Briefly, peptides were diluted to 12 mg/ml and serially titrated in a 96 well plate at a volume of 0.02 ml. MPO was diluted to 20 μg/ml and 0.02 ml was added to the titrated peptides. TMB (3,30,5,50-tetramethylbenzidine) (0.1 ml) was added to each well for 2 minutes, followed by 0.1 ml of 2.5 N H2SO4 for another 2 minutes, and then read on a 96 well plate reader (BioTek) at 450 nm.
as §1

PD-1/PD-L1 interaction = molecular target: T3, PD-1/PD-L1 interaction (Homo sapiens, UniProt Q15116+Q9NZQ7); test: PD-1/PD-L1 Blockade Bioassay (Promega); assay type: cell-based; settings: increasing peptide concentrations
T3 construct: host or cells: PD-1 effector cells; PD-L1 aAPC/CHO-K1 cells
T3 sequence (Q15116 25-288): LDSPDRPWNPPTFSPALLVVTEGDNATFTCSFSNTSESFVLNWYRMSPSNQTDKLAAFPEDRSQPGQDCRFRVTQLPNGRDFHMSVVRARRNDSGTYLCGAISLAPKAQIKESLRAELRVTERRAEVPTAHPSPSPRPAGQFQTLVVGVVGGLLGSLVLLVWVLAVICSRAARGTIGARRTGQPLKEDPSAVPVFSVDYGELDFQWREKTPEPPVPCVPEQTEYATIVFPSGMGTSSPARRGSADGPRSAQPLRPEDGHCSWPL
T3 sequence (Q9NZQ7 19-290): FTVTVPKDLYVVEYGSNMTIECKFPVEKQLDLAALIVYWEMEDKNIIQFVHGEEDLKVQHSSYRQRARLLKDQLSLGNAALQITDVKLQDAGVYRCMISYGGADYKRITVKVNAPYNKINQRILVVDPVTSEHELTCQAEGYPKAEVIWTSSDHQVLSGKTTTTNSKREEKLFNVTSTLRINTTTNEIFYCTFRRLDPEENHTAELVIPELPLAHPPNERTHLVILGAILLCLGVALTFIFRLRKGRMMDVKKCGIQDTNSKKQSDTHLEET
Method in brief: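 PD-1 effector cells co-cultured with PD-L1 aAPC/CHO-K1 cells, with or without increasing concentrations of peptides; anti-PD-1 antibody as positive control. Blockade of PD-1/PD-L1 restores TCR signalling, read as NFAT-driven luciferase luminescence.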

Compound	binding to C1q compared with PA-I8Sar (C1q; half-maximal binding from binding curves)	MPO inhibition compared with PA-I8Sar (MPO; half-maximal values from dose-response curves)	inhibition of PD-1/PD-L1 inhibitory signaling (luminescence) (PD-1/PD-L1 interaction)	binding to C1q (C1q)	inhibition of PD-1/PD-L1 inhibitory signaling (luminescence) (PD-1/PD-L1 interaction; listed as RLS-0117)	inhibition of MPO peroxidase activity (TMB oxidation), dose response (MPO)
CC[C@H](C)[C@H](N)C(=O)N[C@]1(C)CCCCCCC=CCCC[C@@](C)(C(=O)N[C@@H](CS)C(=O)N[C@@H](CCC(N)=O)C(=O)N[C@@H](CCC(=O)O)C(=O)N[C@@H](CCCNC(=N)N)C(=O)N[C@@H](C)C(=O)N[C@@H](C)C(=O)O)NC(=O)CN(C)C(=O)[C@@H]2CCCN2C(=O)[C@H](CCC(=O)O)NC(=O)[C@H](CC(C)C)NC(=O)[C@H]([C@@H](C)CC)NC(=O)[C@H](CC(C)C)NC1=O [PA-0115, IR8LILEP(Sar)S5CQERAA] (H-I[R8]LILEP[Sar][S5]CQERAA-OH; staple 2-9)	markedly increased binding to C1q; also recorded: enhanced activity	enhanced activity	did not show PD-1/PD-L1 inhibitory activity	–	–	–
CC[C@H](C)[C@H](N)C(=O)N[C@@H](C)C(=O)N[C@@H](CC(C)C)C(=O)N[C@H](C(=O)N[C@@H](CC(C)C)C(=O)N[C@@H](CCC(=O)O)C(=O)N1CCC[C@H]1C(=O)N(C)CC(=O)N[C@@H](CS)C(=O)N[C@@]1(C)CCCC=CCCC[C@@](C)(C(=O)N[C@@H](C)C(=O)O)NC(=O)[C@H](CCCNC(=N)N)NC(=O)[C@H](CCC(=O)O)NC(=O)[C@H](CCC(N)=O)NC1=O)[C@@H](C)CC [PA-0117, IALILEP(Sar)CS5QERS5A] (H-IALILEP[Sar]C[S5]QER[S5]A-OH; staple 10-14)	–	–	–	dose-dependent binding	increase in luminescence indicative of inhibition of PD-1/PD-L1 inhibitory signaling; also recorded: able to inhibit PD-1/PD-L1 mediated cell signaling	–
IALILEP(Sar)CCQERA (IALILEP[Sar]CCQERA; cysteine pairing not given here) [RLS-0133*]	–	–	increase in luminescence indicative of inhibition of PD-1/PD-L1 inhibitory signaling; also recorded: able to inhibit PD-1/PD-L1 mediated cell signaling	–	–	dose-dependently inhibited TMB oxidation; also recorded: inhibit complement activation and MPO peroxidase activity
IALILEP(Sar)dCCQERRA (IALILEP[Sar][dC]CQERRA; cysteine pairing not given here) [RLS-0127*]	–	–	increase in luminescence indicative of inhibition of PD-1/PD-L1 inhibitory signaling; also recorded: able to inhibit PD-1/PD-L1 mediated cell signaling	bound C1q in a dose-dependent manner; also recorded: binds C1q	–	dose-dependently inhibited TMB oxidation; also recorded: inhibit complement activation and MPO peroxidase activity
